pIC50: −log10 of the molar value. Where a name gives a salt, the structure may show the parent alone.
Key:
[1] = Dog pharmacokinetics, powder in capsule; type: in vivo, beagle dogs
Protocol: Groups, Dosing, and Collection. The pharmacokinetics of the free acid and the tris salt of Compound 1 administered by oral capsules was assessed in dogs. Three male beagle dogs were administered a single dose of 3 mg/kg Compound 1 free acid on Day 1 of the study, and a single dose of 3 mg/kg Compound 1 tris salt on Day 8 of the study. Plasma was collected pre-dose, and at 0.5, 1, 2, 4, 8, 12 and 24 hours post-dose via puncture of peripheral veins.
(§1) LC MS-MS Analysis. Liquid Chromatography with tandem mass spectrometry was used to determine plasma concentrations of Compound 1 Free Acid and Compound 1 Tris Salt in plasma samples collected at prescribed time points. Instrumentation included YMC-Triart C18, S-5 μm (50×2.1 mm) HPLC column, liquid chromatograph Shimadzu LC-30AD with communications bus module CBM-20A and Auto SIL-20AC HT; and a Triple Quad 5500 LC/MS/MS instrument. Tolbutamide was used as an internal standard.

[2] = Dog pharmacokinetics, oral gavage suspension; type: in vivo, beagle dogs; conditions: for MRT last / half-life: dog, plasma; for MRT last / half-life / ClF: male beagle dogs, oral suspension, mean
Protocol: In a follow-up study, the pharmacokinetics of tris salt Compound 1 were investigated via oral gavage of a 0.5% methylcellulose in saline formulation. Two Groups of animals were tested. In Group 1, three male beagle dogs were administered a single dose of 3 mg/kg Compound 1 tris salt. In Group 2, three male beagle dogs were administered a single dose of 30 mg/kg Compound 1 tris salt. Plasma was collected pre-dose, and at 0.5, 1, 2, 4, 8, 12 and 24 hours post-dose via puncture of peripheral veins.
as §1

beagle dogs [3] = experiment: in vivo; conditions: both, dog, 28 days
Protocol: (§2) Compound 1 was administered to beagle dogs by oral gavage in a range finding study at doses of 30, 79, 240, or 790 mg/kg. […] Compound 1 was administered at doses of 10, 50, and 150 mg/kg/day in the pivotal repeat dose toxicity studies for 28 days.
(§3) Compound 1 tris salt was evaluated for safety in 7- and 28-day studies in rats and dogs. […] The NOAELs for this rat study were 120 mg/kg/day for males and 75 mg/kg/day for females. […] The NOAEL determined in the 28-day dog GLP study was 150 mg/kg/day. These correspond to human equivalent doses (HEDs) of: • Rat: 75 mg/kg×0.16=12 mg/kg • Dog: 150 mg/kg×0.54=81 mg/kg

hERG channel = hERG channel (Homo sapiens, UniProt Q12809); experiment: in vitro hERG assay; type: cell-based; conditions: determination precluded by potential cytotoxicity at >300 μM; read-out: half maximal inhibitory concentration (IC50) against the hERG channel
Protocol: (§4) The safety pharmacology of Compound 1 and its tris salt was evaluated in an in vitro human ether-à-go-go related gene (hERG) assay, a behavioral study in Sprague Dawley rats, and a respiratory and cardiovascular system assessment using electrocardiogram (ECG)-telemetered beagle dogs. […] Determination of the IC50 against the hERG channel was precluded due to potential cytotoxicity at doses >300 μM. […] Cardiovascular safety pharmacology assessments noted decreases in PR interval duration that were detected up to 9 hours post administration of Compound 1 and were usually dose related and associated with potential changes in heart rate. These changes were considered biologically insignificant due to their small magnitude (up to 10 msec compared to vehicle control), association with potential increases in heart rate, and the absence of correlated findings.

Sprague Dawley rats [4] = experiment: Behavioral safety pharmacology study; type: in vivo; conditions: oral dose of up to 400 mg/kg, male rats (highest dose tested)
Protocol: as §4

beagle dogs [5] = experiment: Respiratory and cardiovascular assessment in ECG-telemetered dogs; type: in vivo
Protocol: as §4

[6] = ADME: intravenous clearance and oral bioavailability; type: in vivo
From the text: The absorption, distribution, metabolism, and excretion properties of Compound 1 have been characterized in both in vitro and in vivo studies. Sensitive and selective bioanalytical methods have been developed and validated for rat and dog plasma. Following intravenous administration, the systemic clearance of Compound 1 in all species evaluated was considered low. Following oral administration, bioavailability was generally greater than 30% in the species evaluated. Initial studies utilized the Compound 1 free form. […] All Good Laboratory Practice (GLP) studies were performed using the Compound 1 tris salt form. Dose levels indicate Compound 1 free form equivalents unless otherwise noted.

Sprague Dawley rats [7] = experiment: 28-day repeat-dose toxicity study in rats; type: in vivo; conditions: male, rat, in vivo, 400 mg/kg/day, 28 days
Protocol: Compound 1 was administered to Sprague Dawley rats by oral gavage at doses of 25, 75, and 250 mg/kg/day (females) and 40, 120, and 400 mg/kg/day (males) for 28 days. Compound 1-related mortality occurred in 8 of the 15 toxicity males administered 400 mg/kg/day beginning on Day 8 through 24. […] Target tissues included bone marrow, spleen, thymus, liver, lymph nodes, epididymides, seminal vesicles, prostate, testes, uterus, and ovaries.
as §3

beagle dogs [8] = experiment: Range finding toxicity study in dogs; type: in vivo
Protocol: as §2

[9] = test system: primary human lung fibroblasts; experiment: Fibroblast-to-myofibroblast transition; type: cell-based
From the text: The reduction of lung fibrosis upon MCT4 inhibition is coupled with changes in serum metabolites that indicates turnover of extracellular matrix protein and increased fatty acid oxidation.

[10] = test system: bleomycin-induced lung fibrosis; experiment: Bleomycin-induced lung fibrosis model; type: in vivo, mice
Protocol: The reduction of lung fibrosis upon MCT4 inhibition is coupled with changes in serum metabolites that indicates turnover of extracellular matrix protein and increased fatty acid oxidation. […] The effects of Compound 1, alone or in combination with approved IPF drugs pirfenidone or nintedanib, were studied in the bleomycin-induced lung fibrosis model in therapeutic mode. Compound 1 was dosed at 3 mg/kg, BID; pirfenidone was dosed at 100 mg/kg, BID; and nintedanib was dosed at 50 mg/kg, QD, all via oral gavage.

[11] = male beagle dogs, powder in capsule, 3 mg/kg, mean
[12] = male, beagle, dog, plasma, po, 3 mg/kg, male beagle dogs, powder in capsule, mean

Sequence of hERG channel (Q12809 whole entry): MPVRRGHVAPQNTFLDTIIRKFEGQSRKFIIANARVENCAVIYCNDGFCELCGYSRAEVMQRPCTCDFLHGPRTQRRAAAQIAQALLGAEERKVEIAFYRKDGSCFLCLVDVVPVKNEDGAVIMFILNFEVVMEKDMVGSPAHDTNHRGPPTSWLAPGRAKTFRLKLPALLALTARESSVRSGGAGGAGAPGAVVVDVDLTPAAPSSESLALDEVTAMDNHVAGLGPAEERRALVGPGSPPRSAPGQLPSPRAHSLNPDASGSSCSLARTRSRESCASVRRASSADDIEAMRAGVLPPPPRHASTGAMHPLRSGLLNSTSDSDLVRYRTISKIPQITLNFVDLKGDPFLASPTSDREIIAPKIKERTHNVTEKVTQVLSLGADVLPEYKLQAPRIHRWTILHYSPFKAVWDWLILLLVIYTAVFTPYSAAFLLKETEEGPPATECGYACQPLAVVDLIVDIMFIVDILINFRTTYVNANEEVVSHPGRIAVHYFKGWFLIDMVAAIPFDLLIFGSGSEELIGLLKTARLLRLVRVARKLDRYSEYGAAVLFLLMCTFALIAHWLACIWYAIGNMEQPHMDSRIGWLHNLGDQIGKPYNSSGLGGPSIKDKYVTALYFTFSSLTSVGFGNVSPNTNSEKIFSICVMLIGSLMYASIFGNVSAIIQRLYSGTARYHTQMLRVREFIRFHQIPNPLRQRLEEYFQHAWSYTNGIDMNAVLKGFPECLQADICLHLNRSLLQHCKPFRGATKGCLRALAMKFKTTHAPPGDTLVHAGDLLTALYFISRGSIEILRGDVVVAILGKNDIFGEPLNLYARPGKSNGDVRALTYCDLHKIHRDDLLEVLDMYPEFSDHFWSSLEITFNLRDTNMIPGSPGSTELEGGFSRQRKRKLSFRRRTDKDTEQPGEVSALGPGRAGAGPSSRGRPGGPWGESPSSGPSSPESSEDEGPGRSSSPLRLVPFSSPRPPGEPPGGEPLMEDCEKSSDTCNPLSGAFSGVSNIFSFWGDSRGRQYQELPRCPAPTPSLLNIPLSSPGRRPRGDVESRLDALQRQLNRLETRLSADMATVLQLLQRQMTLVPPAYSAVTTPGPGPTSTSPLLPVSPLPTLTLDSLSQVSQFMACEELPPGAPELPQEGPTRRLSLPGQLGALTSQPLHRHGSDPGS

SMILES: CC(C)(OCc1cc(-c2cccc(OC3CCC3)c2)n(-c2ccccc2N2CCC2)n1)C(=O)O [Compound 1 tris salt, tris salt of 2-((1-(2-(azetidin-1-yl)phenyl)-5-(3-cyclobutoxyphenyl)-1H-pyrazol-3-yl)methoxy)-2-methylpropanoic acid]
- Half-life compared to free acid ([1]; dogs): lower
- Mean residence time compared to free acid ([1]; dogs): increased
- Total drug exposure across time (AUClast and AUCInf) compared to free acid ([1]; dogs, powder in capsule and suspension formulations): higher
- ClF [1, 11]: 756
- MRTlast [1, 11]: 7.89 h
- T1/2 [1, 11]: 3.63 h
- MRT last ([2]; 3 mg/kg): 2.34 h
- half-life ([2]; 3 mg/kg): 4.74 h
- MRT last ([2]; 30 mg/kg): 3.81 h
- half-life ([2]; 30 mg/kg): 3.69 h
- Clinical symptoms ([2]; dogs, single 3 or 30 mg/kg oral gavage dose): No abnormal clinical symptoms were observed
- ClF ([2]; 3 mg/kg): 602
- ClF ([2]; 30 mg/kg): 547
- Adverse effects (beagle dogs [3]): no Compound 1 tris salt-related adverse effects

SMILES: CC(C)(OCc1cc(-c2cccc(OC3CCC3)c2)n(-c2ccccc2N2CCC2)n1)C(=O)O [Compound 1, 2-((1-(2-(azetidin-1-yl)phenyl)-5-(3-cyclobutoxyphenyl)-1H-pyrazol-3-yl)methoxy)-2-methylpropanoic acid]
- Clinical symptoms ([1]; dogs, single 3 mg/kg oral capsule dose): No abnormal clinical symptoms were observed
- ClF ([1]; male beagle dogs, powder in capsule, 3 mg/kg, mean, listed as Free Acid): 2505
- MRT last [1, 12]: 5.39 h
- half-life [1, 12]: 6.33 h
- pIC50 (hERG channel): < 3.52
- Behavioral effects (Sprague Dawley rats [4]): no Compound 1-related behavioral effects
- Time post administration at which decreases in PR interval duration were detected (beagle dogs [5]; dogs): up to 9 hours
- Decrease in PR interval duration, magnitude (beagle dogs [5]; dogs, compared to vehicle control): up to 10 msec
- Respiratory effects (beagle dogs [5]; oral dose of up to 150 mg/kg, dogs (highest dose tested)): no significant respiratory effects
- Systemic clearance ([6]; intravenous administration, all species evaluated): low
- bioavailability ([6]; plasma, oral administration, species evaluated): > 30%
- Compound-related mortality (Sprague Dawley rats [7]): 8 of the 15
- Dose at which decreased thymus weights were observed (beagle dogs [8]; dogs): ≥ 240 mg/kg
- Clinical observations (beagle dogs [8]; dogs, oral gavage 30, 79, 240, or 790 mg/kg, all dose levels): Watery feces and emesis were occasionally observed
- Electrolyte changes (beagle dogs [8]; male dogs, 790 mg/kg): increased potassium and decreased sodium and chloride
- Fibroblast-to-myofibroblast transition [9]: attenuates the fibroblast-to-myofibroblast transition
- Production of alpha-smooth muscle actin (αSMA) [9]: reducing the production
- Lung fibrosis ([10]; aged (>60 week) mice): reduced lung fibrosis
- Lung lactate levels ([10]; aged (>60 week) mice): reduction in lung lactate levels
- Lung fibrosis ([10]; bleomycin-induced mouse model of IPF): reduces lung fibrosis
- Minimal efficacious dose ([10]; twice daily (BID), bleomycin-induced mouse model of IPF): 3 mg/kg

From US20250179049A1, “SALTS OF HETEROCYCLIC INHIBITORS OF MONOCARBOXYLATE TRANSPORTER 4 FOR THE TREATMENT OF DISEASE” (Vettore, LLC, priority 2022, published 2025)
